We go through one molecule from patent US20190055231A1, “BACE1 INHIBITORS” (Hoffmann-La Roche Inc., priority 2016, published 2019).

Data set [1] concerns the target hERG channel (Homo sapiens, UniProt Q12809). Nature of the data set: hERG patch liner assay. The class given is cell-based. The text has this: The methods to determine the hERG IC20 patch liner values were described in Toward a New Gold Standard for Early Safety: Automated Temperature-Controlled hERG Test on the PatchLiner. Polonchuk L., Front Pharmacol. 2012 Jan. 26; 3:3. (doi: 10.3389/fphar.2012.00003. eCollection 2012.) PMID:22303293
On the technique in general: hERG is a cardiac potassium channel; its block is linked to QT prolongation.

Data set [2] deals with T1, BACE1 (Homo sapiens, UniProt P56817). Briefly: BACE1 KD SPR assay. The class given is binding. The following applies: Surface Plasmon Resonance. A general note: SPR reads the build-up and loss of mass on a sensor chip optically.
T1 sequence (P56817 46-501): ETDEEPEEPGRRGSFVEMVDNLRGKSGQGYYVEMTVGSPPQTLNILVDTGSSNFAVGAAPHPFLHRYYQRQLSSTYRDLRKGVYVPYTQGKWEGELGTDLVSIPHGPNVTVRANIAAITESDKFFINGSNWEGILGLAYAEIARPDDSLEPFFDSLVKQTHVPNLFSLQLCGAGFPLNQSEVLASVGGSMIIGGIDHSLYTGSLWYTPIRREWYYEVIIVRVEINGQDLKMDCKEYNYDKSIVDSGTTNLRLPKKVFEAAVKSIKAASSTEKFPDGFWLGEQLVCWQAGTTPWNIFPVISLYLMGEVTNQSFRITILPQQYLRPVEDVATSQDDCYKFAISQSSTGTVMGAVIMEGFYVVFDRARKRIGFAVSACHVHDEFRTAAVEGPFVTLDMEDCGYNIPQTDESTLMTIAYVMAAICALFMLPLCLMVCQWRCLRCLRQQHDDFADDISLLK
Procedure: Surface Plasmon Resonance measurements were performed on a Biacore T200 instrument. Immobilization of BACE-1 was performed by standard amine coupling chemistry on a CMS sensor to achieve protein surface density of ˜8000 pg/mm2 (RU). Immobilization was performed using the acetate buffer (25 mM Na acetate, 150 mM NaCl, 0.01% P20, 3 mM EDTA, pH 4.5) as the running buffer at 25° C. In the first step the carboxyl groups of CMS sensor surface were transformed to the reactive succinimide esters by contacting the sensor surface 7 minutes with a solution of 0.2 M N-ethyl-N-dimethylaminopolycarboodiimide (EDC) and 0.05 M N-hydroxysuccinimide (NHS). After the activation, the sensor surface was contacted with (˜5 μgml-1 BACE1 protein solution in 10 mM sodium acetate coupling buffer (pH 4.5) to reach desired protein surface density. Finally, the excess of activated carboxylic groups on the surface was quenched with ethanolamine (1 M, pH 8.5, 7 min).
Binding assays were performed at 18° C. under the same buffer conditions as immobilization of the protein. Compounds were dissolved in DMSO as 10 mM stocks and diluted in running buffer to perform titration series (5 concentrations with dilution factor of 2) on a protein and reference (activated and deactivated CMS sensor surface) surfaces in parallel.
Data set [3] addresses T1, BACE1. Nature of the data set: Cellular Aβ-lowering assay (Abeta 40 AlphaLISA, HEK293 APP cells). The following applies: HEK293 APP cells, Aβ40 in supernatant; read-out: BACE1 cell act. Aβ40 IC50. Further details: endogenous in cells; host or cells: HEK293 APP cells. It counts as cell-based. As to the method: Cellular Aβ-Lowering Assay:
The Abeta 40 AlphaLISA Assay can be used. The HEK293 APP cells were seeded in 96 well Microtiter plates in cell culture medium (Iscove's, plus 10% (v/v) fetal bovine serum, penicillin/streptomycin) to about 80% confluency and the compounds were added at a 3× concentration in ⅓ volume of culture medium (final DMSO concentration was kept at 1% v/v). After 18-20 hrs incubation at 37° C. and 5% CO2 in a humidified incubator, the culture supernatants were harvested for the determination of AP 40 concentrations using Perkin-Elmer Human Amyloid beta 1-40 (high specificity) Kit (Cat#AL275C).
In a Perkin-Elmer White Optiplate-384 (Cat#6007290), 2 ul culture supernatants were combined with 2 μl of a 10× AlphaLISA Anti-hAP Acceptor beads+Biotinylated Antibody Anti-Aβ 1-40 Mix (50 μg/mL/5 nM). After 1 hour room temperature incubation, 16 μl of a 1.25× preparation of Streptavidin (SA) Donor beads (25 μg/mL) were added and incubated for 30 minutes in the Dark. Light Emission at 615 nm was then recorded using EnVision-Alpha Reader. Levels of AP 40 in the culture supernatants were calculated as percentage of maximum signal (cells treated with 1% DMSO without inhibitor). The IC50 value were calculated using the Excel XLfit software.
Cellular Aβ-Lowering Assay (Cell-Based Assay)
(§1) The determination of BACE1 activity can be either measured by using an enzymatic cell-free fluorescence assay (BACE1 cell free, table 2) or by a whole cell assay using HEK293 APP cells (Cellular Aβ-lowering, table 2). Both assays are suitable to determine BACE1 inhibition.
(In general: In Alpha technology, singlet oxygen from a donor bead excites a nearby acceptor bead.)

In data set [4] the test system is Plasma Aβ40. Nature of the data set: Cynomolgus monkey plasma Aβ40 determination. The class given is in vivo, Cynomolgus monkey (Macacaca fascicularis). The text has this:
Cynomolgus Monkey (Macacaca fascicularis) Single Dose PK Study and Plasma Aβ40 Determination
Blood and plasma collection will always be performed in the treatment cage. The animal care keeper grabs either one arm or one leg through the bars. The hairs are shaved for better visibility of the vein. The blood vessel is squeezed, the vein is punctured by using a butterfly and blood is taken. Once enough blood has been withdrawn a cotton swab is placed over the injection site and the needle is gently removed. Bleeding is stopped by pressing a cotton swab on the wound. Plasma samples were taken between 5 min and 48 h.
(§2) Blood is transferred into a labeled EDTA-K2 Eppendorf tube and the sample is mixed by inverting the tubes several times. Blood is stored at −20° C.
Aβ determination in cynomolgous plasma samples was done after solid phase extraction (Lanz, T. et al., J. of Neuroscience Methods, 2006, 157:71-81). Frozen plasma samples were thawed in a 25° C. waterbath. […] Once samples were dried, they were stored at −80° C. or measured immediately. […]
Aβ concentration was determined following a modified protocol from Perkin-Elmer with a commercially available antibody against the N-terminal part of cynomolgus Aβ (6E10, Signet IG-39340) and an in-house C-terminal specific anti-Aβ40 antibody (BAP-24, Brockhaus M. et al., J. Neuroreport, 1998, 9:1481-1486). […]

Data set [5] has as its target Mouse P-gp (Mus musculus, UniProt P21447). Briefly: P-gp transport assay (mouse). The class given is in vitro ADME. The conditions noted are these: efflux ratio. From the text: P-Gp Transport Assay (Human and Mouse) (P-Gp Assay)
In the assay of the P-gp efflux ratio ER as described hereinabove, a compound with ER<2.5 is regarded most suitable. In addition, compounds with low hERG channel binding are suitable as well.

Data set [6] is described as follows: Rat single dose PK study. The following applies: 1 mg/kg; for concentration at 4 h: oral. The class given is in vivo. As to the method:
Rat Single Dose PK Study (Inhibition of CSF Aβ40 in Wistar Rats)
The rat single dose PK study was described in H. Hilpert et al., J. Med. Chem. 2013, 56, 3980-3995 (dx.doi.org/10.1021/jm400225m) with slight modifications.
as §2

Data set [7] addresses T1, BACE1. Nature of the data set: BACE1 cell-free assay (BACE1 enzyme assay). The class given is biochemical.
Source text: BACE1 Cell-Free Assay (BACE1 Enzyme Assay)
as §1

Values joined by “and” are separate entries in the source; they are usually repeats but may differ in a detail not shown here. Identical values can stand only once. Like-named read-outs stand apart in the source and are kept apart here.

As a reminder, the IC20 is the point of the concentration-response curve where the effect stands at 20%. In general, Kd refers to a measure of binding affinity in units of concentration. One may read the residence time as how long the partners stay bound on average. A word on the IC50: it is the concentration that gives 50% inhibition. In general, bioavailability refers to dose-corrected exposure relative to a reference, in per cent.

Sequence of hERG channel (Q12809 whole entry): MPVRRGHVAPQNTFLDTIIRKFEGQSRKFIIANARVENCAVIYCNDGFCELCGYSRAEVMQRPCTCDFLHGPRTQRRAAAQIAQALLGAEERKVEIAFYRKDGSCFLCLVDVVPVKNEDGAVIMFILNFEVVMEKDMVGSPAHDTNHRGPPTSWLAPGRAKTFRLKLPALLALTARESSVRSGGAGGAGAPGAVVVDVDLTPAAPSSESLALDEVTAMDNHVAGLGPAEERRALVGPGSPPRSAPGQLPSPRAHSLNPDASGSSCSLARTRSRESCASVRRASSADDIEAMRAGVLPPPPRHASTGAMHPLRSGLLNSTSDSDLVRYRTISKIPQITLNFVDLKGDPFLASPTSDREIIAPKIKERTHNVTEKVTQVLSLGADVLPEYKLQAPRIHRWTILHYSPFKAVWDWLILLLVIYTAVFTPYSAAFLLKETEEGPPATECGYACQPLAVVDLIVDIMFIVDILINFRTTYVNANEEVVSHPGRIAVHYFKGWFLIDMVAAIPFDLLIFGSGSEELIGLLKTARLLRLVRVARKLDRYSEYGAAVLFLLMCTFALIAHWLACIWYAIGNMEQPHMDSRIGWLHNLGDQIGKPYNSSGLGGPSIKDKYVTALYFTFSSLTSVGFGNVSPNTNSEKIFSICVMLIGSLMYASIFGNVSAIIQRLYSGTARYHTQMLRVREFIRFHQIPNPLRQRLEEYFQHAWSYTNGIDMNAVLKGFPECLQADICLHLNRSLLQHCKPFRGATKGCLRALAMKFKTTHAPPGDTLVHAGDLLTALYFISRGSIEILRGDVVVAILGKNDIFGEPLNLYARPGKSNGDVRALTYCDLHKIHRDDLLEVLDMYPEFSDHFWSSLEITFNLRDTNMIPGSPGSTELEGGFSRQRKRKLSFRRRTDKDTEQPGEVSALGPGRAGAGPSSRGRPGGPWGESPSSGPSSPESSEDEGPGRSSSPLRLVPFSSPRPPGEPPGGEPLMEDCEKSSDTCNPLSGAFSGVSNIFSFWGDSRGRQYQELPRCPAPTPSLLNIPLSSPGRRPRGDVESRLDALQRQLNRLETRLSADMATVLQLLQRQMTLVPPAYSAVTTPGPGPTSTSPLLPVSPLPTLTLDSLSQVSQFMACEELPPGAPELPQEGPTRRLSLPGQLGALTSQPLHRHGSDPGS
Sequence of Mouse P-gp (P21447 whole entry): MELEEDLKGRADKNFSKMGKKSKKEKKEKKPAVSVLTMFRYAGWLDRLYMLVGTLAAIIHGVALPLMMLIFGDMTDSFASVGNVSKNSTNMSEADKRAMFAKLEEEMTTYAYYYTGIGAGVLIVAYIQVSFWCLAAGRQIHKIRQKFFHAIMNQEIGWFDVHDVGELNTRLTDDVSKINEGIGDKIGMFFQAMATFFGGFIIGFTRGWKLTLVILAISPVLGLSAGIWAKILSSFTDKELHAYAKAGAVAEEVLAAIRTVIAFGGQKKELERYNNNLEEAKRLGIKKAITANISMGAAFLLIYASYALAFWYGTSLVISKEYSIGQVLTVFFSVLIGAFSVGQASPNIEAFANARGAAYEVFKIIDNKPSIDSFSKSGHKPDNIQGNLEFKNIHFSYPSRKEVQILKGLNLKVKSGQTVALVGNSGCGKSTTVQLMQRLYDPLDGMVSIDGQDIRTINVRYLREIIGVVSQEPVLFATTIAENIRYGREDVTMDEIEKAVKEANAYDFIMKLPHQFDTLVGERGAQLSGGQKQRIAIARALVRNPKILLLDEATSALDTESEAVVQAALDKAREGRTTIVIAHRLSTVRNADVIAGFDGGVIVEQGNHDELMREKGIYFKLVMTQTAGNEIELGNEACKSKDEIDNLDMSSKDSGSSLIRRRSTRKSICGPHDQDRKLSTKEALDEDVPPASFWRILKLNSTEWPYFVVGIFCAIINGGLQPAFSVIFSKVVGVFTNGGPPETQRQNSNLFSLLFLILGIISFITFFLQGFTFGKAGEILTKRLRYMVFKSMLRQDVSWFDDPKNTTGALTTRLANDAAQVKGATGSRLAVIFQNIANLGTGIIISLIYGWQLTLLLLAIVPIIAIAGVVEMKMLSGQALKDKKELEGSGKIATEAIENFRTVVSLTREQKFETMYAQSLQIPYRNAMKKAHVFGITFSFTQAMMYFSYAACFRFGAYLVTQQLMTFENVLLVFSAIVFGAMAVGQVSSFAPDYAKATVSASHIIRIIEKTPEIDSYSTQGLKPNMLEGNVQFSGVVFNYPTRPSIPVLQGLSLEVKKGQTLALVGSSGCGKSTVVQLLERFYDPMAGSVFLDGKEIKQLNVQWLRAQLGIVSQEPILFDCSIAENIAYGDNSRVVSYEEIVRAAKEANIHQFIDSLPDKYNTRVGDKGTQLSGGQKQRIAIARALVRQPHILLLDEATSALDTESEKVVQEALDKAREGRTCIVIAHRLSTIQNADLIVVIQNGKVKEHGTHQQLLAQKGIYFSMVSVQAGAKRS

For the molecule `Cc1cc(C#N)cnc1C(=O)Nc1ccc(F)c([C@@]2(C)N=C(N)O[C@H](C(F)(F)F)[C@@H]2F)n1` [Example 1, N-(6-((4R,5R,6S)-2-amino-5-fluoro-4-methyl-6-(trifluoromethyl)-5,6-dihydro-4H-1,3-oxazin-4-yl)-5-fluoropyridin-2-yl)-5-cyano-3-methylpicolinamide], the “improvement of the hERG safety margin versus comparator 6” value in data set [1] (at approximately 80% reduction of Aβ40 in rat CSF) is 17 fold. The IC20 in data set [1] (human, hERG patchliner assay) was 2.34 µM. Further, the Kd in data set [2] (18° C., pH 4.5) was 0.002 µM. The residence time in data set [2] (t1/2=0.693/koff) is 16 min. In addition, the IC50 in data set [3] worked out at 0.015 µM; in data set [7], 0.036 µM. In data set [4] (24 h post dose), the “Plasma Aβ-lowering 0.2 mg/kg at 24 h” value came out at 57%. In data set [4] (48 h post dose), the “Plasma Aβ-lowering 0.2 mg/kg at 48 h” value is 50%. Besides, the “Mouse P-gp ER” value in data set [5] was determined as 3.5. The “Plasma concentration at 4 h, free” value in data set [6] (4 h, free unbound) amounted to 0.0125 µM. Further, the “Plasma concentration at 4 h” value in data set [6] (4 h, total) came to 0.0902 µM. In addition, the concentration at 4 h in data set [6] (Wistar, plasma, 4 h, free unbound, read-out: Plasma concentration at 4 h, free) was 0.0125 µM; in data set [6] (Wistar, plasma, 4 h, free, read-out: Plasma concentration at 4 h, free) it was 0.041 µg/mL; in data set [6] (Wistar, plasma, 4 h, total, read-out: Plasma concentration at 4 h), 90 nM and 41 ng/mL. Also, the bioavailability in data set [6] (Wistar, plasma, po, read-out: Oral Bioavailability F) amounted to 62%.
